Measurements taken from US9023821B2, “Use of MicroRNA for treating diseases associated with a dysfunction of the cilia in multiciliated epithelial cells” (Centre National de la Recherche Scientifique, priority 2009, dated 2015).

Key:
[1] = tested on: human airway epithelial cells (HAECs); assay: High-throughput sequencing (HTS) of miRNAs at four stages of differentiation of HAECs; details: for Modulation (ratio of the level of intensity of expression in log2 in two stages of differentiation) measured by high-throughput sequencing, D7 − D0 / Modulation (ratio of the level of intensity of expression in log2 in two stages of differentiation) measured by high-throughput sequencing, FC − D7 / Modulation (ratio of the level of intensity of expression in log2 in two stages of differentiation) measured by high-throughput sequencing, WD − D0 / Modulation (ratio of the level of intensity of expression in log2 in two stages of differentiation) measured by high-throughput sequencing, WD − FC / Level of intensity of expression in log2 measured by high-throughput sequencing, D0 / Level of intensity of expression in log2 measured by high-throughput sequencing, D7 / Level of intensity of expression in log2 measured by high-throughput sequencing, FC / Level of intensity of expression in log2 measured by high-throughput sequencing, WD: Table VI; for Level of intensity of expression in log2 At the differentiated stage (WD) measured in HTS: healthy human airway epithelial tissue; for Level of intensity of expression in log2 measured by high-throughput sequencing, D0: stage D0; for Level of intensity of expression in log2 measured by high-throughput sequencing, D7: stage D7; for Level of intensity of expression in log2 measured by high-throughput sequencing, FC: stage FC; for Level of intensity of expression in log2 At the differentiated stage (WD) measured in HTS / Level of intensity of expression in log2 measured by high-throughput sequencing, WD: stage WD
Procedure, shortened: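 Total RNA including small RNAs was taken from air-liquid interface cultures at ALI-D0, ALI-D7, ALI-FC (first cilia, ~14 days) and ALI-WD (~21 days). SOLiD small-RNA libraries were sequenced, and 5p/3p reads were normalized to 10^6 sequences and expressed as percentage abundance.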

[2] = tested on: human airway epithelial cells (HAECs); assay: Agilent miRNA chips, miRNA expression at four stages of differentiation of HAECs; details: for Modulation (ratio of the level of intensity of expression in log2 in two stages of differentiation) measured with the Agilent chips, D7 − D0 / Modulation (ratio of the level of intensity of expression in log2 in two stages of differentiation) measured with the Agilent chips, FC − D7 / Modulation (ratio of the level of intensity of expression in log2 in two stages of differentiation) measured with the Agilent chips, WD − D0 / Modulation (ratio of the level of intensity of expression in log2 in two stages of differentiation) measured with the Agilent chips, WD − FC / Level of intensity of expression in log2 measured with the Agilent chips, D0 / Level of intensity of expression in log2 measured with the Agilent chips, D7 / Level of intensity of expression in log2 measured with the Agilent chips, FC / Level of intensity of expression in log2 measured with the Agilent chips, WD: Table VI; for Modulation (ratio of the level of intensity of expression in log2 at two stages of differentiation), FC − D7 / Modulation (ratio of the level of intensity of expression in log2 at two stages of differentiation), WD − FC: Agilent miRNA chips, Table V; for Level of intensity of expression in log2 measured with the Agilent chips, D0: stage D0; for Level of intensity of expression in log2 measured with the Agilent chips, D7: stage D7; for Level of intensity of expression in log2 measured with the Agilent chips, FC: stage FC; for Level of intensity of expression in log2 measured with the Agilent chips, WD: stage WD
Procedure, shortened: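 To benchmark sequencing, the microRNAome was also profiled by hybridizing labelled RNA from identical patient samples to v2 arrays with miRBase v.12.0 human content (866 miRNAs) and 89 viral miRNAs.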

[3] = tested on: basal cells and pyramidal cells of the airway epithelium; assay: miRNA expression in sorted basal cells versus pyramidal cells (ciliated + secretory), HTS and Agilent chips; set-up: species or system human; details: for Modulation of expression of the miRNAs in pyramidal cells (323(−)) relative to basal cells 323(+): HTS and Agilent chips; for Intensity of the level of expression in log2 in pyramidal cells (323(−)): pyramidal cells (ciliated + secretory)
Procedure, shortened: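 miRNA repertoires measured by high-throughput sequencing or Agilent arrays on total RNA from sorted airway epithelial populations of 3 donors. Sorting used CD151-PE and anti-tissue factor-FITC: double-positive basal versus double-negative ciliated/secretory cells, with DAPI-stained and aggregated cells excluded.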

| Substance | Modulation (ratio of the level of intensity of expression in log2 in two stages of differentiation) measured by high-throughput sequencing, D7 − D0 [1] | Modulation (ratio of the level of intensity of expression in log2 in two stages of differentiation) measured by high-throughput sequencing, FC − D7 [1] | Modulation (ratio of the level of intensity of expression in log2 in two stages of differentiation) measured by high-throughput sequencing, WD − D0 [1] | Modulation (ratio of the level of intensity of expression in log2 in two stages of differentiation) measured by high-throughput sequencing, WD − FC [1] | Level of intensity of expression in log2 At the differentiated stage (WD) measured in HTS [1] | Level of intensity of expression in log2 measured by high-throughput sequencing, D0 [1] | Level of intensity of expression in log2 measured by high-throughput sequencing, D7 [1] | Level of intensity of expression in log2 measured by high-throughput sequencing, FC [1] | Level of intensity of expression in log2 measured by high-throughput sequencing, WD [1] | Modulation (ratio of the level of intensity of expression in log2 in two stages of differentiation) measured with the Agilent chips, D7 − D0 [2] | Modulation (ratio of the level of intensity of expression in log2 at two stages of differentiation), FC − D7 [2] | Modulation (ratio of the level of intensity of expression in log2 in two stages of differentiation) measured with the Agilent chips, FC − D7 [2] | Modulation (ratio of the level of intensity of expression in log2 in two stages of differentiation) measured with the Agilent chips, WD − D0 [2] | Modulation (ratio of the level of intensity of expression in log2 at two stages of differentiation), WD − FC [2] | Modulation (ratio of the level of intensity of expression in log2 in two stages of differentiation) measured with the Agilent chips, WD − FC [2] | Level of intensity of expression in log2 measured with the Agilent chips, D0 [2] | Level of intensity of expression in log2 measured with the Agilent chips, D7 [2] | Level of intensity of expression in log2 measured with the Agilent chips, FC [2] | Level of intensity of expression in log2 measured with the Agilent chips, WD [2] | Modulation of expression of the miRNAs in pyramidal cells (323(−)) relative to basal cells 323(+) [3] | other results |
| --- | --- | --- | --- | --- | --- | --- | --- | --- | --- | --- | --- | --- | --- | --- | --- | --- | --- | --- | --- | --- | --- |
| hsa-miR-200a: human miRNA, SEQ ID No. 16 (UAACACUGUCUGGUAACGAUGU; expressed or natural sequence; listed as Homo sapiens) | 1.00 log2 | 0.67 log2 | 2.20 log2 | 0.54 log2 | 10.96 log2 | 9.02 log2 | 10.01 log2 | 10.68 log2 | 11.22 log2 | 1.94 log2 | 0.20 log2 | 0.20 log2 | 2.20 log2 | 0.06 log2 | 0.06 log2 | 8.64 log2 | 10.58 log2 | 10.79 log2 | 10.84 log2 | −0.95 | Intensity of the level of expression in log2 in basal cells (323(+)) [3]: 8.80 log2; Intensity of the level of expression in log2 in pyramidal cells (323(−)) [3]: 7.85 log2 |
| hsa-miR-34a: human miRNA, SEQ ID No. 38 (UGGCAGUGUCUUAGCUGGUUGU; expressed or natural sequence; listed as Homo sapiens) | 1.46 log2 | −1.04 log2 | 0.88 log2 | 0.45 log2 | 13.75 log2 | 10.31 log2 | 11.77 log2 | 10.73 log2 | 11.18 log2 | 2.31 log2 | −0.54 log2 | −0.54 log2 | 1.91 log2 | 0.13 log2 | 0.13 log2 | 8.58 log2 | 10.89 log2 | 10.35 log2 | 10.49 log2 | 0.64 | Intensity of the level of expression in log2 in basal cells (323(+)) [3]: 6.72 log2; Intensity of the level of expression in log2 in pyramidal cells (323(−)) [3]: 7.36 log2 |
| hsa-miR-30b: human miRNA, SEQ ID No. 33 (UGUAAACAUCCUACACUCAGCU; expressed or natural sequence; listed as Homo sapiens) | 0.83 log2 | −0.27 log2 | 1.24 log2 | 0.68 log2 | 0.01 log2 | 8.50 log2 | 9.33 log2 | 9.06 log2 | 9.74 log2 | 2.36 log2 | 0.05 log2 | 0.05 log2 | 2.55 log2 | 0.15 log2 | 0.15 log2 | 7.62 log2 | 9.98 log2 | 10.03 log2 | 10.17 log2 | −0.80 | Intensity of the level of expression in log2 in basal cells (323(+)) [3]: 8.76 log2; Intensity of the level of expression in log2 in pyramidal cells (323(−)) [3]: 7.96 log2 |
| hsa-miR-27b: human miRNA, SEQ ID No. 30 (UUCACAGUGGCUAAGUUCUGC; expressed or natural sequence; listed as Homo sapiens) | 0.64 log2 | −0.69 log2 | −0.11 log2 | −0.06 log2 | 14.81 log2 | 6.92 log2 | 7.57 log2 | 6.88 log2 | 6.81 log2 | 1.77 log2 | −0.47 log2 | −0.47 log2 | 1.36 log2 | 0.05 log2 | 0.05 log2 | 9.26 log2 | 11.03 log2 | 10.57 log2 | 10.62 log2 | −3.56 | Intensity of the level of expression in log2 in basal cells (323(+)) [3]: 9.77 log2; Intensity of the level of expression in log2 in pyramidal cells (323(−)) [3]: 6.21 log2 |
| hsa-miR-30d: human miRNA, SEQ ID No. 35 (UGUAAACAUCCCCGACUGGAAG; expressed or natural sequence; listed as Homo sapiens) | 0.64 log2 | −0.09 log2 | 1.75 log2 | 1.20 log2 | 8.76 log2 | 9.12 log2 | 9.76 log2 | 9.67 log2 | 10.87 log2 | 1.88 log2 | −0.06 log2 | −0.06 log2 | 1.86 log2 | 0.05 log2 | 0.05 log2 | 7.06 log2 | 8.94 log2 | 8.88 log2 | 8.92 log2 | −1.11 | Intensity of the level of expression in log2 in basal cells (323(+)) [3]: 8.16 log2; Intensity of the level of expression in log2 in pyramidal cells (323(−)) [3]: 7.05 log2 |
